Converted amounts (≈) assume the structure as drawn.

The record followed here is ChEMBL document CHEMBL4400540, “Structure-based design, synthesis and biological evaluation of a novel series of isoquinolone and pyrazolo[4,3-c]pyridine inhibitors of fascin 1 as potential anti-metastatic agents” (Bioorg Med Chem Lett, 2019).

Data set [1] deals with T1, Fascin (Homo sapiens, UniProt Q16658).
Data set [2] has as its target T1, Fascin. The source holds these as a separate data set.
The target of data set [3] is T1, Fascin. This is another data set of the same source.
Data set [4] in a line: Solubility of compound by turbidimetric method. It is filed as physicochemical.
A short description of data set [5]: Lipophilicity, log D of the compound at pH 7.4. It is filed as physicochemical. The conditions noted are these: buffer.
The nature of data set [6]: Apparent permeability of the compound across apical side to basolateral side in human Caco2 cells. To be noted: caco-2. In kind it is ADME, cell-based.
Data set [7] in a line: Efflux ratio of apparent permeability of the compound in human Caco2 cells. It is filed as ADME, cell-based. The conditions noted are these: caco-2.
Data set [8] can be described thus: Intrinsic clearance in mouse microsomes assessed per mg protein. In kind it is ADME, Microsome.
Data set [9] in a line: Intrinsic clearance in human microsomes assessed per mg protein. It is filed as ADME, Microsome.
For a further data set, the target named is Cytochrome P450 3A4 (Homo sapiens, UniProt P08684). In words: Inhibition of CYP3A4 (unknown origin). It is filed as ADME.
Chain of Cytochrome P450 3A4 (P08684 whole entry): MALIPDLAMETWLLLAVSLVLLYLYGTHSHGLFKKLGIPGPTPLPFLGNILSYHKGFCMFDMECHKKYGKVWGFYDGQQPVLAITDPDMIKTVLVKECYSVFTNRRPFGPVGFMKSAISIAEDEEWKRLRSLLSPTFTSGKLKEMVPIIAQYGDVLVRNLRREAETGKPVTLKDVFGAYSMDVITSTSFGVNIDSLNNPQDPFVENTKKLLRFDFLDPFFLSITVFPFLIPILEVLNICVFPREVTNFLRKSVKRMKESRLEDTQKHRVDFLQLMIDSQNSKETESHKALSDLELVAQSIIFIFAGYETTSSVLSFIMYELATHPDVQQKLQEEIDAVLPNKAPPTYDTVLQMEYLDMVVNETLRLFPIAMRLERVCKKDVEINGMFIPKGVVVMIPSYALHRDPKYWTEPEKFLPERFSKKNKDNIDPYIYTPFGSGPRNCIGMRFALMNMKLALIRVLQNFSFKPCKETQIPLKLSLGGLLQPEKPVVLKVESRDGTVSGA
The next data set concerns the target Cytochrome P450 2D6 (Homo sapiens, UniProt P10635). Briefly: Inhibition of CYP2D6 (unknown origin). In kind it is ADME.
The target of a further data set is Cytochrome P450 2C19 (Homo sapiens, UniProt P33261). In words: Inhibition of CYP2C19 (unknown origin). In kind it is ADME.
Chain of Cytochrome P450 2C19 (P33261 whole entry): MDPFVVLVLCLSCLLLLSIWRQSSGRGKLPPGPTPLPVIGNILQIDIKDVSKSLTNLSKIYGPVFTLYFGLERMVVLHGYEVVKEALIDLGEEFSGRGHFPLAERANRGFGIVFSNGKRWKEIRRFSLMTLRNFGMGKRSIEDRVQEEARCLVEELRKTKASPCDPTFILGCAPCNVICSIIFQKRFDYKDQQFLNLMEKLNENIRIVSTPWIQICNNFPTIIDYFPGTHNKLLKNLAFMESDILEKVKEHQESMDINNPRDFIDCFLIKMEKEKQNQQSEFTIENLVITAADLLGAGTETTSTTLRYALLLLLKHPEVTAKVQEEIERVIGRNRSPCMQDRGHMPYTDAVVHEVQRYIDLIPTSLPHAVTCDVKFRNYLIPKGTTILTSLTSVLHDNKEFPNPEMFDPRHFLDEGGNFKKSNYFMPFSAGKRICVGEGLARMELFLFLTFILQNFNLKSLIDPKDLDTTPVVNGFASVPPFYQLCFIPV
The target of another data set is Cytochrome P450 2C9 (Homo sapiens, UniProt P11712). Briefly: Inhibition of CYP2C9 (unknown origin). In kind it is ADME.
Chain of Cytochrome P450 2C9 (P11712 whole entry): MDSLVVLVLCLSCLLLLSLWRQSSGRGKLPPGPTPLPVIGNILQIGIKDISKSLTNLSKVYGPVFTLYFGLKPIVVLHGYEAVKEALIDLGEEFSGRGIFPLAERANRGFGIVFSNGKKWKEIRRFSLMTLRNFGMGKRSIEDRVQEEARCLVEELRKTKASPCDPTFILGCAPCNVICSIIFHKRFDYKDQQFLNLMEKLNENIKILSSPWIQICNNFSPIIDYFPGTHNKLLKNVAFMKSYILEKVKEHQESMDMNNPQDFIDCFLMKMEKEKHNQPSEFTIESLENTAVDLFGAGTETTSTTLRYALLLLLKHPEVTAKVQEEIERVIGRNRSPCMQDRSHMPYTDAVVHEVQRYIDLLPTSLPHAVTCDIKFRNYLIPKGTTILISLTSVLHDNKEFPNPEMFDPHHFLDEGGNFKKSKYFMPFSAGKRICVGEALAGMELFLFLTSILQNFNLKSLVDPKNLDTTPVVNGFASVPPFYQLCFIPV
Data set [10] has as its target Voltage-gated inwardly rectifying potassium channel KCNH2 (Homo sapiens, UniProt Q12809). In words: Inhibition of human ERG.
The target in data set [11] is T1, Fascin. Briefly: Binding affinity to fascin 1 (unknown origin) by SPR assay.

Chain of Cytochrome P450 2D6 (P10635 whole entry): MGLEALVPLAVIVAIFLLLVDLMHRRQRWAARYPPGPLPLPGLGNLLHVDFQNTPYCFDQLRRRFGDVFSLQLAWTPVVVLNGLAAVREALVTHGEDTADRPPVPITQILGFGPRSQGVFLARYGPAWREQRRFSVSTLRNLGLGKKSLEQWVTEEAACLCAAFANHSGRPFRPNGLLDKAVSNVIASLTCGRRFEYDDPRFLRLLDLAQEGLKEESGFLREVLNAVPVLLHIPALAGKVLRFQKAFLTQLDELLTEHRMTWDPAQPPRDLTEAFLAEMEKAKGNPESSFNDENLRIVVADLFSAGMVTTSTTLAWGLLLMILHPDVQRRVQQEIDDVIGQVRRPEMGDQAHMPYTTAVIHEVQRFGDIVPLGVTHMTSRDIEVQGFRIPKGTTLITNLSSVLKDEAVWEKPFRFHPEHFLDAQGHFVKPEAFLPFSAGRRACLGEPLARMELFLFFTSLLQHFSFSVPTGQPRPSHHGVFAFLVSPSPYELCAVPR
Chain of Voltage-gated inwardly rectifying potassium channel KCNH2 (Q12809 whole entry): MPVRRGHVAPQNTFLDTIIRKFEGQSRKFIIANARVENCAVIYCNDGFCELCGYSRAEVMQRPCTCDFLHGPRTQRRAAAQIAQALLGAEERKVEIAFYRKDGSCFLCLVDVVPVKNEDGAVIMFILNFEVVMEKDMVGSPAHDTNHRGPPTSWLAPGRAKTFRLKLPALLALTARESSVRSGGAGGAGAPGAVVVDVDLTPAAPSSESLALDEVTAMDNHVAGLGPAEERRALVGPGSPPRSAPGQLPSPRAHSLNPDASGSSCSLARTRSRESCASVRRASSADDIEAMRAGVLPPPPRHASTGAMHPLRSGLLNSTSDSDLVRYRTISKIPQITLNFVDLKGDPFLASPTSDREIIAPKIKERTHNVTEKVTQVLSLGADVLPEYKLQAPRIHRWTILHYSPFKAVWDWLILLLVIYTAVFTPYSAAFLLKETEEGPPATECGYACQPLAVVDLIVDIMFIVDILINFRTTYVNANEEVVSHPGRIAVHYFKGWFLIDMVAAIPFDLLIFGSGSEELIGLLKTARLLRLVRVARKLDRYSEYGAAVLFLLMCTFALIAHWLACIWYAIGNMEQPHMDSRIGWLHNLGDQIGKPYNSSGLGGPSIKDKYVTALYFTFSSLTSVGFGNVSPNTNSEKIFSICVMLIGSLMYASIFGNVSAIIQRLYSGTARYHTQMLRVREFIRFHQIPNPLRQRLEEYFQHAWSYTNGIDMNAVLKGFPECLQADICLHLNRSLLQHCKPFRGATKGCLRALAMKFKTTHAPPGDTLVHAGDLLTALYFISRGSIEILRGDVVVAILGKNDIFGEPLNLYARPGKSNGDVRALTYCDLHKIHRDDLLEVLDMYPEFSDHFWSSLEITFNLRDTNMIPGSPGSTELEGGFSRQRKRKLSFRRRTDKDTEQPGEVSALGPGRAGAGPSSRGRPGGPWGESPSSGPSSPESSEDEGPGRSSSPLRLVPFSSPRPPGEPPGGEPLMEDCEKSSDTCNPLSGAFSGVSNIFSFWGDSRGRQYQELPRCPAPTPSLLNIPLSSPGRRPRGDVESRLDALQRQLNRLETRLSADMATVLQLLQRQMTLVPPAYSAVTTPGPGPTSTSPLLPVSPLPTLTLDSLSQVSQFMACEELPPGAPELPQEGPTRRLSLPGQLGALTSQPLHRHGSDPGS

At Fascin [1], `O=C(Nc1cnn(C2CCNC2)c1)c1ccc(=O)n(Cc2ccc(Cl)c(Cl)c2)c1` (configuration not stated) showed a Kd above 100 µM.
On Fascin [2], `Cn1cc(NC(=O)c2cn(Cc3ccc(Cl)c(Cl)c3)c(=O)c3cnn(C4CCS(=O)(=O)C4)c23)cn1` (configuration not stated) came in with an IC50 of 0.63 µM. Also, on Fascin [1], the affinity, expressed as Kd, was 0.6 µM.
With `Cn1cc(NC(=O)c2cn(Cc3ccc(Cl)c(Cl)c3)c(=O)c3ccccc23)cn1`, the IC50 against Fascin [2] came to 1.3 µM. On Fascin [1], the dissociation constant Kd amounted to 1.5 µM.
Take `Nc1cc(C(=O)Nc2cnn(C3CCNC3)c2)cn(Cc2ccc(Cl)c(Cl)c2)c1=O` (configuration not stated): on Fascin [2], the IC50 was above 100 µM. In addition, on Fascin [1], the Kd was determined as 21 µM.
Take `O=c1c2cn[nH]c2ncn1Cc1ccc(Cl)c(Cl)c1`: on Fascin [1], the Kd was above 500 µM.
The molecule `Cn1cc(NC(=O)c2cn(Cc3cccc(Cl)c3)c(=O)c3ccccc23)cn1` showed an IC50 at Fascin [2] of 11.4 µM. The Kd at Fascin [1] is 7.6 µM.
`CN(c1cc2c(C(=O)Nc3cnn(C)c3)cn(Cc3ccc(Cl)c(Cl)c3)c(=O)c2cn1)S(C)(=O)=O` returned a Kd on Fascin [1] of 2 µM.
Consider `O=C(Nc1ccncc1)c1cn(Cc2ccc(Cl)c(Cl)c2)c(=O)c2cnn(C3CCNCC3)c12`, for which the Kd stood at 0.05 µM at Fascin [3] and 0.09 µM at Fascin [1]. Further, the kinetic solubility in [4] was 65 µM (≈ 32.3 µg/mL). Moreover, the logD in data set [5] worked out at 1.8. Moreover, in data set [6], the Papp turned out to be 0.15 ×10⁻⁶ cm/s. The Ratio in [7] was 37.8. In addition, the CL in data set [8] is 11.8 µL/min; in data set [9], 6.4 µL/min. Also, the IC50 against Cytochrome P450 3A4 is 7 µM; against Cytochrome P450 2D6, 1.6 µM; against Cytochrome P450 2C19, 22 µM; at Cytochrome P450 2C9 it was 5.9 µM; in [10] it was above 25 µM; against Fascin [2] it was 0.24 µM.
Molecule `Cn1cc(NC(=O)c2cn(Cc3ccccc3)c(=O)c3ccccc23)cn1` showed an IC50 on Fascin [2] of 67.9 µM. This molecule displayed a Kd at Fascin [1] of 29.3 µM.
`Cn1cc(NC(=O)c2cn(Cc3ccc(Cl)c(Cl)c3)c(=O)c3cccnc23)cn1` registered a Kd on Fascin [1] above 100 µM.
Regarding `Cn1cc(NC(=O)c2cn(Cc3ccc(Cl)c(Cl)c3)c(=O)c3cnc(N4CCNCC4)cc23)cn1`, the IC50 at Fascin [2] was determined as 0.63 µM. At Fascin [1], the Kd was determined as 0.58 µM.
The molecule `Cn1cc(NC(=O)c2cn(Cc3ccc(Cl)c(Cl)c3)c(=O)c3ncccc23)cn1` showed a Kd at Fascin [1] above 100 µM.
At Fascin [11], `CC(=O)N(C)c1ccc(Cl)cc1Cl` gave an equilibrium dissociation constant (Kd) of 92 µM.
The molecule `O=C(Nc1ccncc1)c1cn(Cc2ccc(Cl)c(Cl)c2)c(=O)c2cnn(C3CCS(=O)(=O)C3)c12` (configuration not stated) yielded an IC50 against Fascin [2] of 0.33 µM. Further, at Fascin [1], the Kd was found to be 0.27 µM.
For the molecule `Cn1cc(NC(=O)c2cn(Cc3ccc(Cl)cc3)c(=O)c3ccccc23)cn1`, at Fascin [2], the IC50 was 4.6 µM. In addition, the Kd at Fascin [1] is 2.7 µM.
On Fascin [2], `O=c1c2cnn(C3CCS(=O)(=O)C3)c2ncn1Cc1ccc(Cl)c(Cl)c1` (configuration not stated) displayed an IC50 of 67.6 µM.
